Reference: US20240343735A1, “Hydrochloride Salt of Inupadenant, Pharmaceutical Compositions and Methods of Use Thereof” (iTeos Belgium SA, priority 2021, published 2024)

Key:
Assay type in all cases: physicochemical
[1] = Dynamic vapor sorption (DVS)
Procedure: 10-20 mg of sample was placed into a mesh vapor sorption balance pan and loaded into a DVS Intrinsic or Advantage dynamic vapor sorption balance by Surface Measurement Systems. The sample was subjected to a ramping profile from 40-90% relative humidity (RH) at 10% increments, maintaining the sample at each step until a stable weight had been achieved (dm/dt 0.004%, minimum step length 30 minutes, maximum step length 500 minutes) at 25° C. After completion of the sorption cycle, the sample was dried using the same procedure to 0% RH and then a second sorption cycle back to 40% RH. Two cycles were performed. The weight change during the sorption/desorption cycles were plotted, allowing for the hygroscopic nature of the sample to be determined. XRPD analysis (XRPD Method A) was then carried out on any solid retained.
DVS isotherms were collected using a Surface Measurement Systems Ltd. DVS-1 No Video, equipment #2126. The sample was loaded into balance pan, typically 10-30 mg, and equilibrated at 0% RH. After the material has dried the RH was increased with 10% per step for 1 hour per increment, ending at 95% RH. After completion of the sorption cycle, the sample was dried using the same method. The software used for data collection is DVSWin v3.01 No Video. Data analysis was performed using DVS Standard Analysis Suite v6.3.0 (Standard). […]

[2] = Solubility assessment in solvents; details: 1,4-dioxane, water, tert-butyl alcohol, THF, ethyl acetate, acetone, methanol, DCM; even at 20 mg/mL with gentle heating
Procedure: 0.5-1 mL of solvent was added to each vial and the samples were manually shaken at ambient temperature. […] The solvents assessed in this solubility study were 1,4-dioxane, water, tert-butyl alcohol, THF, ethyl acetate, acetone, methanol, and DCM.

[3] = 7-day stability assessment of Form 2 inupadenant hydrochloride
[4] = 7-day stability assessment of amorphous inupadenant hydrochloride
Procedure: A 7-day stability assessment of amorphous inupadenant hydrochloride was carried out as follows: (1) 20 mg amorphous inupadenant was added to 3×2 mL glass vials; (2) the samples were then stored under the following conditions—(i) 40° C./75% RH—open vial, (ii) 80° C.—closed vial, and (iii) ambient light—open vial; (3) Solids were stored for 1 week under the above conditions with XRPD analysis (Example 1, XRPD Method A) and HPLC purity analysis (Example 1, HPLC Method A) being carried out post-storage.

[5] = Salt disproportionation study in unbuffered water; details: ambient temperature, 24 hours
[6] = Dissolution rate assessment in pH 1.2, 0.2 M HCl/KCl buffer; details: for Conc. mg/mL in pH 1.2 HCl/KCl: ca. 37° C.
Procedure: 1000 μL of each sample was drawn from the slurry layer by automated pipette at 15, 30, 60, 120, 240 and 1440 minute timepoints. • These aliquots were spun down through a centrifuge filter, diluted 300 μl:300 μl with the method specified diluent and placed in total recovery vials. The solids were retained for XRPD analysis. • The solubility of the material in the buffer was determined by HPLC analysis (duplicate injections) (Example 1, HPLC Method C) against verified reference solutions of the source material at known concentrations.

[7] = 7 days, 40° C. + 75% RH, open vial
[8] = 7 days, ambient light, open vial

C[S@+]([O-])CCOc1cc(N2CCN(CCn3c(=O)sc4c3nc(N)n3nc(-c5ccco5)nc43)CC2)c(F)cc1F.Cl [Form 1 inupadenant hydrochloride]
DVS total mass uptake ([1]; at 95% RH, DVS Method B): 5 wt. %

C[S@+]([O-])CCOc1cc(N2CCN(CCn3c(=O)sc4c3nc(N)n3nc(-c5ccco5)nc43)CC2)c(F)cc1F.Cl.O [Form 2 inupadenant hydrochloride]
DVS total mass increase ([1]; at 90% RH, 25° C., DVS Method A): 3.8 wt. %
solubility in solvent systems [2]: insoluble
HPLC (Purity, % area) [3, 7]: 99.64 % area
XRPD Analysis [3, 7]: Form 2 inupadenant
HPLC (Purity, % area) ([3]; 7 days, 80° C., closed vial): 99.66 % area
XRPD Analysis ([3]; 7 days, 80° C., closed vial): Form 2 inupadenant
HPLC (Purity, % area) [3, 8]: 99.66 % area
XRPD Analysis [3, 8]: Form 2 inupadenant
change of solid form (XRPD) after 7-day stability assessment ([3]; all stability conditions): no changes to the solid form
change of solid purity (HPLC) after 7-day stability assessment ([3]; all stability conditions): no changes to solid purity
HPLC (Purity, % area) ([3]; input material): 99.61 % area
XRPD Analysis ([3]; input material): Form 2 inupadenant
change of solid purity (HPLC) after 7-day stability assessment ([4]; all stability conditions): no changes to solid purity
solid form (XRPD) after slurrying in water [5]: no changes in the solid form
solubility in pH 1.2 0.2 M HCl/KCl buffer ([6]; 37° C., overnight): low
Conc. mg/mL in pH 1.2 HCl/KCl ([6]; 15 min): 0.0010 mg/mL
Conc. mg/mL in pH 1.2 HCl/KCl ([6]; 30 min): 0.0013 mg/mL
Conc. mg/mL in pH 1.2 HCl/KCl ([6]; 60 min): 0.0014 mg/mL
Conc. mg/mL in pH 1.2 HCl/KCl ([6]; 120 min): 0.0023 mg/mL
Conc. mg/mL in pH 1.2 HCl/KCl ([6]; 240 min): 0.0029 mg/mL
Conc. mg/mL in pH 1.2 HCl/KCl ([6]; 1440 min): 0.0035 mg/mL
XRPD of solids recovered from each timepoint ([6]; pH 1.2 HCl/KCl buffer): consistent with Form 2 inupadenant hydrochloride

C[S@+]([O-])CCOc1cc(N2CCN(CCn3c(=O)sc4c3nc(N)n3nc(-c5ccco5)nc43)CC2)c(F)cc1F.Cl [amorphous inupadenant hydrochloride]
HPLC (Purity, % area) [4, 7]: 99.64 % area
XRPD Analysis [4, 7]: Form 2 inupadenant
HPLC (Purity, % area) ([4]; 7 days, 80° C., closed vial): 99.66 % area
XRPD Analysis ([4]; 7 days, 80° C., closed vial): Form 2 inupadenant
HPLC (Purity, % area) [4, 8]: 99.66 % area
XRPD Analysis [4, 8]: Form 2 inupadenant
change of solid form (XRPD) after 7-day stability assessment ([4]; all stability conditions): crystallized into Form 2 inupadenant hydrochloride
HPLC (Purity, % area) ([4]; input material): 99.61 % area
XRPD Analysis ([4]; input material): Predominantly amorphous
